Results reported in patent US9278934B2, “Method for producing fine particles of aripiprazole anhydride crystals B” (OTSUKA PHARMACEUTICAL CO., LTD., priority 2011, dated 2016).

Experiment: Hygroscopicity: water content before and after 24 hours in a desiccator at 60° C. and humidity 100%
Type: physicochemical
Settings: for Water content (%) after 24 hours: after 24 hours in a desiccator at a temperature of 60° C. and a humidity of 100%; for Water content (%) at the start: obtained crystals, before conditioning
Protocol: Aripiprazole anhydride crystals B have a low hygroscopicity; and, for example, maintain a water content of 0.4% or less, and further 0.1% or less, after 24 hours of conditioning in a desiccator set at a temperature of 60° C. and a humidity of 100%. Known methods for measuring water content can be used as long as they are commonly used for measuring the water content of crystals. For example, a method such as the Karl Fischer method can be used.
Fine particles of the crystals after heating treatment (drying) are the fine particles of anhydride crystals B of aripiprazole. These particles have the physicochemical properties (1) to (5) described above, and also have a low hygroscopicity; specifically, the water content thereof after 24 hours of conditioning in a desiccator adjusted to a temperature of 60° C. and a humidity of 100% is 0.4% or less, further 0.2% or less, and furthremore 0.1% or less.

SMILES	Water content (%) after 24 hours	Water content (%) after 24 hours (listed as anhydride crystals B of aripiprazole)	hygroscopicity (left to stand for 24 hours in a desiccator at 60° C. and a humidity of 100%)	Water content (%) at the start
O=C1CCc2ccc(OCCCCN3CCN(c4cccc(Cl)c4Cl)CC3)cc2N1 [Aripiprazole anhydride crystals B, 7-{4-[4-(2,3-dichlorophenyl)-1-piperazinyl]butoxy}-3,4-dihydrocarbostyril]	≤ 0.4%	≤ 0.4%		
O=C1CCc2ccc(OCCCCN3CCN(c4cccc(Cl)c4Cl)CC3)cc2N1 [Example 1, 7-{4-[4-(2,3-dichlorophenyl)-1-piperazinyl]butoxy}-3,4-dihydrocarbostyril]	0.10%		< 4%	0.11%
O=C1CCc2ccc(OCCCCN3CCN(c4cccc(Cl)c4Cl)CC3)cc2N1 [Example 2, 7-{4-[4-(2,3-dichlorophenyl)-1-piperazinyl]butoxy}-3,4-dihydrocarbostyril]	≤ 0.01%			0.01%
O=C1CCc2ccc(OCCCCN3CCN(c4cccc(Cl)c4Cl)CC3)cc2N1 [Example 3, 7-{4-[4-(2,3-dichlorophenyl)-1-piperazinyl]butoxy}-3,4-dihydrocarbostyril]	0.17%			0.08%
